Literature values as cited in patent US20120022114A1, “Low-dose, non-irritating nicotine nasal composition to reduce the desire to smoke” (Laboratorio Pablo Cassara S.R.L., priority 2009, published 2012).

Settings: when inhaled; on average

Compound: CN1CCCC1c1cccnc1 (stereo not shown) [nicotine, Nicotine]
- Time for the substance to reach the brain: about seven
